For orientation: solubility means the dissolved amount per volume that the medium holds. A higher solubility goes with a readily soluble substance. As a reminder, the fraction unbound is free concentration divided by total concentration. One may read the bioavailability as the share of a dose that reaches the circulation, judged against a reference dose that is usually intravenous. The low end stands for little systemic uptake, the high end for much systemic uptake. The term half-life denotes the time in which the quantity being followed falls by half. Read a high half-life as slow decline. In general, inhibition in vivo refers to the percentage by which the read-out fell short of the control.

Results on 23 compounds are retold here after ChEMBL document CHEMBL1143306, “3-amido-4-anilinoquinolines as CSF-1R kinase inhibitors 2: Optimization of the PK profile” (Bioorg Med Chem Lett, 2009).

In brackets after ≈: the same amount, converted by molar mass.

One data set has as its system NIH3T3. Kind of data set: Antiproliferative activity against mouse 3T3 cells expressing human CSF1R after 72 hrs by Celltiter assay. In kind it is functional.
Data set [1] is described as follows: Aqueous solubility of the compound. The note with it: buffer. In kind it is physicochemical.
A short description of data set [2]: Plasma protein binding assessed as percentage unbound.
A short description of data set [3]: Bioavailability in rat at 3 mg/kg, iv and 10 mg/kg, po. It is filed as ADME, organism-based. The note with it: in vivo.
A short description of data set [4]: Clearance in rat at 3 mg/kg, iv and 10 mg/kg, po. In kind it is ADME, organism-based. Particulars: in vivo.
A short description of data set [5]: Volume of distribution at steady state in rat at 3 mg/kg, iv and 10 mg/kg, po. In kind it is ADME, organism-based. The note with it: in vivo, read-out: Vdss.
The nature of data set [6]: Half life in rat at 3 mg/kg, iv and 10 mg/kg, po. It is filed as ADME, organism-based. The note with it: in vivo.
For data set [7], the system named is Mus musculus. Kind of data set: Inhibition of phosphorylated CSF1R level in 3T3/CSF1R mutant cells xenografted nude mouse at 25 mg/kg, po after 2 hrs by ELISA. It is filed as functional. Background: An ELISA detects its analyte on a solid surface through an enzyme-linked reagent.
Data set [8] relates to Mus musculus. Kind of data set: Inhibition of phosphorylated CSF1R level in 3T3/CSF1R mutant cells xenografted nude mouse at 25 mg/kg, po after 6 hrs by ELISA. In kind it is functional.

The compound `CCOc1cc2ncc(C(N)=O)c(Nc3cccc(Cl)c3Cl)c2cc1N1CCN(C(=O)CO)CC1` registered an Activity with NIH3T3 of 0.09 µM. The compound also had a solubility in data set [1] of 29 µM (≈ 15 µg/mL). The fraction unbound in data set [2] turned out to be 0.16. In data set [3], this compound yielded a bioavailability of 6%. This compound returned a clearance in [4] of 72 mL/min/kg. Besides, the Vd in data set [5] came to 2.2 L/kg. Besides, the half-life in data set [6] is 0.66 h.
Turning to `CCOc1cc2ncc(C(N)=O)c(Nc3cccc(Cl)c3Cl)c2cc1N1CCCN(C(C)C)CC1`, the Activity in the data set with NIH3T3 was found to be 0.02 µM. The same compound came in with a solubility in data set [1] of 420 µM (≈ 217 µg/mL). The fraction unbound in [2] came out at 0.049. For the same compound, the inhibition in vivo at 25 mg/kg stood at 90% with Mus musculus [7] and 75% in the data set on Mus musculus [8].
Take `COCCOc1cc2ncc(C(N)=O)c(Nc3ccc(F)cc3F)c2cc1N1CCN(C)CC1`: the solubility in data set [1] amounted to 720 µM (≈ 339 µg/mL). In data set [2], the fraction unbound came out at 0.46. Also, the bioavailability in data set [3] stood at 100%. This compound came in with a clearance in data set [4] of 68 mL/min/kg. In addition, the Vd in data set [5] is 18 L/kg. The same compound showed a half-life in data set [6] of 3.8 h. Further, the inhibition in vivo at 25 mg/kg with Mus musculus [7] was 100%; in the data set with Mus musculus [8], 70%.
`CCOc1cc2ncc(C(N)=O)c(Nc3ccc(C)cc3F)c2cc1N1CCN(C)CC1` registered a solubility in [1] of 54 µM (≈ 23.6 µg/mL). Besides, in data set [3], the bioavailability worked out at 46%. Also, the clearance in data set [4] amounted to 10 mL/min/kg. Moreover, the Vd in data set [5] is 1.8 L/kg. Further, the half-life in data set [6] is 2.3 h. For the same compound, the inhibition in vivo at 25 mg/kg in the data set with Mus musculus [8] is 60%.
With `CCOc1cc2ncc(C(N)=O)c(Nc3cc(C)ccc3F)c2cc1N1CCN(C)CC1`, in the data set on NIH3T3, the Activity turned out to be 0.09 µM. The compound further yielded a solubility in data set [1] of 66 µM (≈ 28.9 µg/mL). Further, in data set [3], the bioavailability came to 88%. The clearance in [4] was 28 mL/min/kg. In data set [5], the Vd stood at 5.3 L/kg. The half-life in [6] was 2.3 h. In addition, the inhibition in vivo at 25 mg/kg with Mus musculus [7] is 90%; in the data set with Mus musculus [8], 80%.
As to `COc1cc2ncc(C(N)=O)c(Nc3ccc(F)cc3F)c2cc1OC`, in the data set on NIH3T3, the Activity came to 0.4 µM. The compound also gave a bioavailability in data set [3] of 100%. Also, the clearance in data set [4] was determined as 23 mL/min/kg. For the same compound, in [5], the Vd is 0.9 L/kg. In [6], this compound showed a half-life of 0.6 h.
Compound `CCOc1cc2ncc(C(N)=O)c(Nc3ccc(Cl)c(Cl)c3)c2cc1N1CCN(C)CC1` gave an Activity in the data set with NIH3T3 of 0.06 µM. The compound also yielded a solubility in data set [1] of 3 µM (≈ 1.42 µg/mL). The bioavailability in [3] was found to be 42%. This compound also returned a clearance in data set [4] of 47 mL/min/kg. For the same compound, in data set [5], the Vd is 3.7 L/kg. In addition, in [6], the half-life was 1.2 h. Also, the inhibition in vivo at 25 mg/kg with Mus musculus [7] amounted to 80%; with Mus musculus [8], 40%.
For `CCOc1cc2ncc(C(N)=O)c(Nc3ccc(F)cc3F)c2cc1N1CCCN(C)CC1`, in data set [1], the concentration in solution (solubility) was 530 µM (≈ 241 µg/mL). Moreover, in data set [2], the fraction unbound came to 0.31. The bioavailability in data set [3] is 16%. In [4], this compound registered a clearance of 32 mL/min/kg. Also, in data set [5], the Vd came to 16 L/kg. In data set [6], this compound had a half-life of 6.6 h. Also, the inhibition in vivo at 25 mg/kg in the data set with Mus musculus [7] came out at 90%; in the data set on Mus musculus [8] it was 55%.
`COCCOc1cc2ncc(C(N)=O)c(Nc3ccc(C)cc3F)c2cc1N1CCN(C)CC1` had a solubility in [1] of 63 µM (≈ 29.5 µg/mL). Moreover, the fraction unbound in data set [2] is 0.16. For the same compound, the bioavailability in data set [3] amounted to 100%. The same compound came in with a clearance in [4] of 33 mL/min/kg. Besides, the Vd in data set [5] amounted to 8.6 L/kg. For the same compound, in [6], the half-life is 3.4 h. The inhibition in vivo at 25 mg/kg in the data set with Mus musculus [7] came out at 100%; in the data set with Mus musculus [8] it was 80%.
Regarding `CCOc1cc2ncc(C(N)=O)c(Nc3ccc(F)cc3F)c2cc1N1CCOCC1`, in the data set on NIH3T3, the Activity was determined as 0.48 µM. The solubility in data set [1] came to 64 µM (≈ 27.4 µg/mL). For the same compound, the fraction unbound in [2] was 0.084. Besides, in data set [3], the bioavailability was 25%. Also, the clearance in data set [4] worked out at 36 mL/min/kg. Also, the Vd in data set [5] worked out at 1.1 L/kg. In data set [6], this compound gave a half-life of 0.6 h.
For `CCOc1cc2ncc(C(N)=O)c(Nc3cccc(Cl)c3Cl)c2cc1N1CCN(CCO)CC1`, the Activity in the data set on NIH3T3 was 0.03 µM. In [1], this compound had a solubility of 67 µM (≈ 33.8 µg/mL). The fraction unbound in data set [2] was 0.048.
In turn, `COCCOc1cc2ncc(C(N)=O)c(Nc3cccc(Cl)c3F)c2cc1N1CCN(C)CC1` registered an Activity in the data set on NIH3T3 of 0.1 µM. The compound further gave a solubility in data set [1] of 910 µM (≈ 444 µg/mL). Also, the free fraction (fraction unbound) in data set [2] turned out to be 0.39. For the same compound, the inhibition in vivo at 25 mg/kg worked out at 80% in the data set on Mus musculus [7] and 75% in the data set with Mus musculus [8].
In the data set on NIH3T3, `CC(C)Oc1cc2ncc(C(N)=O)c(Nc3ccc(Cl)c(Cl)c3)c2cc1N1CCN(C)CC1` returned an Activity of 0.12 µM. For the same compound, the solubility in data set [1] amounted to 250 µM (≈ 122 µg/mL). Also, the free fraction (fraction unbound) in data set [2] was found to be 0.01.
The compound `CC(C)Oc1cc2ncc(C(N)=O)c(Nc3cccc(Cl)c3Cl)c2cc1N1CCN(C)CC1` returned an Activity in the data set with NIH3T3 of 0.05 µM. The compound further showed a solubility in [1] of 200 µM (≈ 97.7 µg/mL). For the same compound, the free fraction (fraction unbound) in data set [2] is 0.014. The inhibition in vivo at 25 mg/kg was determined as 70% with Mus musculus [7] and 35% in the data set with Mus musculus [8].
For the compound `CCOc1cc2ncc(C(N)=O)c(Nc3ccc(F)cc3F)c2cc1N1CCN(C2CC2)CC1`, the Activity in the data set on NIH3T3 was found to be 0.66 µM. The same compound gave a solubility in [1] of 150 µM (≈ 70.1 µg/mL). In addition, the bioavailability in data set [3] was 34%. The clearance in [4] came out at 21 mL/min/kg. Also, the Vd in data set [5] was 0.6 L/kg. This compound also gave a half-life in data set [6] of 0.9 h. Moreover, the values for the inhibition in vivo at 25 mg/kg with Mus musculus [7] and in the data set on Mus musculus [8] were 70% and 10%, respectively.
`CCOc1cc2ncc(C(N)=O)c(Nc3ccc(F)cc3F)c2cc1N1CCN(CC)CC1`: the Activity in the data set with NIH3T3 was determined as 0.17 µM. This compound also registered a solubility in [1] of 320 µM (≈ 146 µg/mL). In [2], the fraction unbound turned out to be 0.046. This compound registered a bioavailability in data set [3] of 46%. Also, the clearance in data set [4] turned out to be 19 mL/min/kg. For the same compound, the Vd in data set [5] stood at 3.6 L/kg. In data set [6], the half-life was 2.3 h.
Compound `COc1cc2c(Nc3cccc(Cl)c3Cl)c(C(N)=O)cnc2cc1N1CCN(C)CC1` came in with an Activity in the data set on NIH3T3 of 0.17 µM. Moreover, the solubility in [1] worked out at 220 µM (≈ 101 µg/mL).
In turn, `CCOc1cc2ncc(C(N)=O)c(Nc3ccc(F)cc3F)c2cc1N1CCCN(C2CC2)CC1` registered an Activity in the data set with NIH3T3 of 0.27 µM. Moreover, the solubility in [1] stood at 100 µM (≈ 48.2 µg/mL). Moreover, in data set [2], the fraction unbound came to 0.022.
As for `COc1cc2ncc(C(N)=O)c(Nc3ccc(Cl)c(Cl)c3)c2cc1N1CCN(C)CC1`, in the data set on NIH3T3, the Activity came out at 0.38 µM. Moreover, in data set [2], the fraction unbound was 0.036. In [4], the clearance was 50 mL/min/kg. The Vd in data set [5] worked out at 3.8 L/kg. In [6], this compound had a half-life of 1.2 h.
Compound `CCOc1cc2ncc(C(N)=O)c(Nc3ccc(F)cc3F)c2cc1N1CCN(C(C)C)CC1` showed an Activity in the data set with NIH3T3 of 0.17 µM. Besides, in data set [1], the solubility is > 1000 µM. The inhibition in vivo at 25 mg/kg in the data set with Mus musculus [7] was determined as 70%; in the data set with Mus musculus [8] it was 50%.
`CCOc1cc2ncc(C(N)=O)c(Nc3ccc(F)cc3F)c2cc1N1CCC(O)CC1` registered a solubility in data set [1] of 2 µM (≈ 0.885 µg/mL). For the same compound, the fraction unbound in data set [2] is 0.089.
In turn, `CCOc1cc2ncc(C(N)=O)c(Nc3cccc(Cl)c3Cl)c2cc1N1CCN(CCOC)CC1` yielded an Activity with NIH3T3 of 0.03 µM. In [1], this compound showed a solubility of 13 µM (≈ 6.74 µg/mL). In addition, the fraction unbound in [2] worked out at 0.017.
Taken in the same sequence, the figures for `CC(C)Oc1cc2ncc(C(N)=O)c(Nc3cccc(Cl)c3F)c2cc1N1CCN(C)CC1` were 0.21 µM, 790 µM (≈ 373 µg/mL) and 0.049.
